According to patent US20060183221A1, “Method for neural differentiation of embryonic stem cells using protease passaging techniques” (priority 2003, published 2006):
“Also recorded” adds a separate entry of the source.

Tests used:
[1] = test system: differentiating mouse ES cells (ES-J1); experiment: Apoptosis (TUNEL staining) in differentiating mouse ES cells incubated with ceramide analogs; assay type: cell-based; conditions: for cell death: 20 hours with 75 μM S18; for TUNEL stained cells: 15 hours with 75 μM S16 or S18, or 35 μM C2-ceramide
Method: In vitro neural differentiation of mouse ES cells (ES-J1, ES-D3) followed a serum deprivation protocol as described previously (Hancock, et al., 2000, Biochem. Biophys. Res. Commun. 271: 418-421). The differentiation stages are outlined in FIG. 2. Briefly, ES cells were grown on gamma-irradiated feeder fibroblasts for four days in Knockout DMEM/15% Knockout serum replacement, supplemented with ESGRO (LIF; Chemicon; Cat No. ESG1106) at a concentration of […] medium. ES cells were then grown for another four days on gelatin-coated bacterial culture dishes without a fibroblast feeder layer, and were then grown for three days in Knockout DMEM/15% heat-inactivated ES qualified Fetal Bovine Serum, supplemented with 10^3 units LIF per ml of medium. Upon trypsinization, ES cells were transferred to bacterial culture dishes without gelatin, and embryoid body (EB) formation was induced for four days in Knockout DMEM/10% heat-inactivated ES qualified FBS without LIF (EB4 stage). On the fifth day, floating and loosely attached EBs were rinsed off and transferred to tissue culture dishes. The EBs were allowed to attach to the tissue culture dish surface by incubation for another 24 hours in Knockout DMEM with 10% heat-inactivated ES qualified fetal bovine serum. Neural differentiation due to serum deprivation was induced by cultivation of the EBs for three days in DMEM/F12 (50/50), supplemented with 1×N2 (Invitrogen/Life Technologies; Cat No. 17502, dilution of 1: 100) but without serum (EB8 stage). Serum-deprived EBs were then trypsinized, plated on poly-L-ornithine/laminin-coated tissue culture dishes and grown for four days in DMEM/F12 (50/50), supplemented with N2 and 10 ng/ml FGF-2, but without serum. his incubation period is referred to as neuroprogenitor (NP) stage due to commitment of neuroepithelial precursor cells to neuroprogenitor cells. These cells have committed during the EB stages and were expanded during the NP stage. NPs grown for 48 hours upon replating of trypsinized EBs were referred to as the NP2 stage. On the fifth day of NP formation, the medium was changed to Neurobasal (Invitrogen/Life Technologies; Cat No. 21103-049), with 5% heat-inactivated FBS, and the cells were incubated for another seven days. During this time, NPs fully differentiate to glial cells and neurons. Cells cultured for 24 hours or 96 hours upon changing the medium were referred to as the D1 or D4 stage, respectively.
ES cells were cultured and differentiated to the EB4, EB8, NP2, or D4 stage following the protocol as described above. The ceramide analog S18 was dissolved in ethanol at a concentration of 100 mM and then added to the cells at a final concentration of 75 μM in medium. The cells at the EB8 stage were incubated for 48 hours in the presence of the ceramide analog and were then transplanted into mouse brains.
Differentiating ES cells were grown on cover slips and fixed with 4% paraformaldehyde in phosphate-buffered saline (PBS). Fixed cells were permeabilized with 0.5% Triton X-100 in PBS for 5 minutes at room temperature and unspecific binding sites were saturated by incubation with 3% ovalbumin in PBS for 1 hour at 37° C. The cover slips were then incubated with 5 μg/ml primary antibody (anti-ceramide clone 15B4 mouse IgM, Alexis; anti-PAR-4 rabbit IgG, Santa Cruz; anti-PCNA rabbit IgG, Santa Cruz; anti-nestin clone 401 rat IgG, BD Pharmingen) in 0.1% ovalbumin/PBS, followed by incubation with the appropriate fluorescence-labeled secondary antibody (5 μg/ml Alexa 546 conjugated anti-mouse IgG, Molecular Probes; Alexa 488 conjugated anti-rabbit IgG, Molecular Probes, Cy3 conjugated anti-mouse IgM, Jackson) for 2 hours at 37° C. The nuclei were stained by treatment with 2 μg/ml Hoechst 33258 in PBS for 30 minutes at room temperature. Apoptotic nuclei were stained using the fluorescein FragEL TUNEL assay (Oncogene) according to the manufacturer's instructions. […]

Oct4 = Oct4 expression by immunoblotting in EB8 stage ES cells incubated with S18; assay type: cell-based, mouse
Method: (§1) In vitro differentiating ES cells at stage EB8 were incubated for 24-48 hours with 75 μM S18, or 35 μM N-acyl sphingosine or other ceramide analogs. Protein was isolated from cells incubated with S18 for 24 hours and from untreated cells, separated by SDS-PAGE, and the expression of Oct4 was analyzed by immunoblotting.

EB8-derived cells = experiment: Injection of ceramide analog treated EB8-derived stem cells into mouse brains, teratoma formation; assay type: in vivo; conditions: EB8-derived cells treated with 75 μM S18 for 24-48 hours, injected into brain of 8-10 day old C57BL6 mice, analysed after 7-21 days
Method: as §1
Prior to injection into the mouse brain, ES cells were labeled with Vybrant-DiI (rhodamine fluorescence) for permanent vital staining and were mixed with India ink in order to track the injection channel and cell migration/tissue integration. 1×10^4 of the untreated ES-J1 cells were injected, while 2×10^4 of the S18-treated cells were injected in order to control for the percentage of cells lost to apoptosis. The ES cells were injected into the right brain hemisphere (bregma −1.5 mm, 1 mm lateral of central suture, 2.0 mm deep) of 8-10 day old C57BL6 mice using a Hamilton syringe. After 7-21 days, the mice were sacrificed, the brain isolated and fixed with 10% PBS-buffered formalin. The brains were Vibratome sectioned at 100 μm. The distribution of the injected cells was determined by fluorescence microscopy.

SSEA4 selected HESCs = experiment: Neural differentiation of SSEA4 selected bulk passaged HESCs as serum free embryoid bodies with or without MEDII and S18, seeded and immunostained; assay type: cell-based, human; conditions: with or without 10 μM S18 from day 13 to day 17
Method: Cultures were treated with or without 10 μM S18 from day 13 to day 17. After S18 treatment, serum free embryoid bodies were washed several times and cultured further until day 18. Serum free embryoid bodies were cut into pieces to seed down to polyornithine/laminin coated slides.
In the presence of MEDII, a consistently high proportion of the culture contained TH+ neurons, with the background of non-neural regions that was negative for the neuronal marker βIII-Tubulin typically lower than 10%. It was not determined whether the effect of MEDII induced more efficient neuralization or inhibited the generation of non-neural cell types. […] This proportion was determined by analysis of double staining of neural extensions for βIII-Tubulin and TH (FIG. 18), and overlaying Hoffman images with TH immunofluorescence (FIG. 19). The increase in the proportion of TH+ neurons in MEDII treated differentiations appeared to be due to the overall increase in neuronal differentiation, rather than an effect on the proportion of neurons that were dopaminergic, because the proportions of neurons that were TH+ in differentiations not exposed to MEDII was equally high. Another marker of DA cells, VMAT, was expressed in similarly high proportions of cells within the sfEBM cultures. TH+/VMAT−, TH−/VMAT+ and TH+/VMAT+ cells were observed (FIG. 20), possibly indicating temporal variability in the induction of expression of these markers prior to being co-expressed.

Compound: CCCCCCCC/C=C\CCCCCCCC(=O)NC(CO)CO [S18, N-(2-hydroxy-1-(hydroxymethyl)ethyl)-oleoylamide]
- cell death ([1]; EB8 and NP2 stages): high degree of cell death
- TUNEL stained cells ([1]; EB8 stage): 45±10%
- TUNEL stained cells ([1]; NP2 stage): 70±10%
- cell death ([1]; differentiated neurons): unaffected
- Oct4 protein level by immunoblot relative to untreated control cells (Oct4; 75 μM S18 for 24 hours, SDS-PAGE immunoblot): 25%
- decrease in Oct4 protein levels (Oct4; after treatment with S18): 75%
- teratoma formation (EB8-derived cells): No teratomas were detected; also recorded: did not show the formation of teratomas
- differences between S18− and S18+ cultures (sfEB, sfEBM) (SSEA4 selected HESCs): No gross morphological or immunocytochemical staining differences were observed
